Each structure is given as a SMILES string. Read-outs that look alike come from different tables or passages of the source.

Assay [1] concerns liver cell. More on the design: unit not given here. Conditions: cited from earlier work.
Assay [2] has as its system skeletal muscle. Put plainly: Human clinical trial with statins: skeletal muscle cholesterol and ubiquinone (Paiva et al.). The assay is classed as in vivo.

In the case of `CC(C)c1c(C(=O)Nc2ccccc2)c(-c2ccccc2)c(-c2ccc(F)cc2)n1CC[C@@H](O)C[C@@H](O)CC(=O)O` [atorvastatin], the Cholesterol is on record as 15.52 in assay [1] (DOSE 0.01), 14.27 in assay [1] (DOSE 3), 13.71 in assay [1] (DOSE 10) and 13.66 in assay [1] (DOSE 20).

On to `CCC(C)(C)C(=O)O[C@H]1C[C@@H](C)C=C2C=C[C@H](C)[C@H](CC[C@@H]3C[C@@H](O)CC(=O)O3)[C@H]21` [simvastatin], for which the “Ubiquinone, Percent from placebo” value in assay [2] (drop) was found to be 134% drop. The “Cholesterol, Percent from placebo” value in assay [2] (rise) was determined as 139% rise.

The values above are taken from US20130191098A1, “METHODS AND SYSTEMS FOR SIMULATIONS OF COMPLEX BIOLOGICAL NETWORKS USING GENE EXPRESSION INDEXING IN COMPUTATIONAL MODELS” (BOARD OF REGENTS OF THE UNIVERSITY OF TEXAS SYSTEM, priority 2010, published 2013).
